pKd: −log10 of the molar value.

For this test, the target named is T1, E-selectin/IgG construct (Homo sapiens, UniProt P16581).
T1 construct: fused on or other part: IgG Fc part (human, since it is captured by goat anti-human Fc antibody), fused on as a capture handle
T1 sequence (P16581 22-175 limits assumed): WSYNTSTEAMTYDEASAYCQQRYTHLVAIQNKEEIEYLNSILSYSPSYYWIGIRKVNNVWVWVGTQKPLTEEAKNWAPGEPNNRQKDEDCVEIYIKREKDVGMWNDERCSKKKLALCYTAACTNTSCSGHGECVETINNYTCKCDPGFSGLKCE
Nature of the test: BIAcore surface plasmon resonance (SPR)-based assay, serial dilutions of the ligand (absolute KD). The note with it: twofold serial dilutions, 600 s association/600 s dissociation, HBS-P + 20 mm calcium + DMSO 5% v/v, read-out: KD values (absolute binding affinities). Here is the method:
The biological evaluation of the E-selectin antagonists was performed by surface plasmon resonance (SPR). For this purpose, an E-selectin/IgG construct was captured onto a BIAcore chip surface bearing covalently linked goat anti-human Fc specific antibody (Biacore Life Sciences, Uppsala, Sweden).
Evaluation of E-Selectin Antagonists with Surface Plasmon Resonance (SPR)-Based Assay
Ten twofold serial dilutions of the ligand were non-randomly injected. The E-selectin antagonists were diluted in running buffer (HBS-P supplemented with […] calcium and DMSO 5% v/v). Antagonist dilutions were injected with a 600 s association time and 600 s dissociation time at a flow rate of 20 μL/min over the reference and the active flow cell. […] In addition, to prevent the presence of residual traces of compound, a blank injection was performed between each injection of ligand dilution. DMSO calibration and double referencing were applied to correct bulk effects and other systematic artifacts (subtraction of reference surface and blank injection).

By pKd is commonly meant −log10 of the Kd, conventionally taken in molar units. On to `CC1CC(C(=O)NCCCN2CCN(CCCn3ccc4cc([N+](=O)[O-])ccc43)CC2)C[C@@H](O[C@@H]2OC(CO)[C@H](O)C(O[C@@H](CC3CCCCC3)C(=O)O)C2OC(=O)c2ccccc2)C1O[C@@H]1OC(C)[C@@H](O)C(O)C1O` (stereo partly drawn) [Product 82, (1R,3R,4R,5S)-3-[2-O-Benzoyl-3-O-((1S)-1-carboxy-2-cyclohexyl-ethyl)-(β-D-galactopyranosyl)oxy]-4-[(α-L-fucopyranosyl)oxy]-5-methyl-N-(3-{1-[3-(5-nitro-1H-indol-1-yl)propyl]piperazin-1-yl}propyl)cyclohexanecarboxamide], for which the pKd is 6.96.
